# Measured values reported in patent US20260364210A1, “COMPOSITIONS AND METHODS FOR TRANSGLUTAMINASE-MEDIATED ENDOCYTOSIS” (The Board of Trustees of the Leland Stanford Junior …, priority 2022, published 2026).
# Residues, ends and D or L forms follow the SMILES beside them.
# T1: human TG2 (Homo sapiens, UniProt P21980)
# T1 sequence (P21980 1-687): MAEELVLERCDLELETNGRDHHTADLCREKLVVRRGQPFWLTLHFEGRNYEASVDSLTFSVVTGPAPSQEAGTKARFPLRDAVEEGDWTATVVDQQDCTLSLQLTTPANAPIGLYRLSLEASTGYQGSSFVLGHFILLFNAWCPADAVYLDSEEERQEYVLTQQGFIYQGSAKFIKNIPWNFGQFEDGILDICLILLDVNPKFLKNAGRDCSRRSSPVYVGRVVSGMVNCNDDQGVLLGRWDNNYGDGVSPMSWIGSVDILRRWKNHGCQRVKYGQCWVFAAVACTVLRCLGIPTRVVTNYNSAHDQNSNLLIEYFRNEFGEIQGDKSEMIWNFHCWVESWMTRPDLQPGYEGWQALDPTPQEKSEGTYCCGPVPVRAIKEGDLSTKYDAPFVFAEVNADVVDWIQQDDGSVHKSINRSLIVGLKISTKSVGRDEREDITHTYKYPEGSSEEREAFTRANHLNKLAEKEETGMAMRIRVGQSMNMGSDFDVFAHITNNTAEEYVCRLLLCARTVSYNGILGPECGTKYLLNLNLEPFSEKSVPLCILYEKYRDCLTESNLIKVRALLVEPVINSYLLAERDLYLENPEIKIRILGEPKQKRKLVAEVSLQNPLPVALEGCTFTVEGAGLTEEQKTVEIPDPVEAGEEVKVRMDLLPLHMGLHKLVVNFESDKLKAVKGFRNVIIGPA
# How the values were obtained:
# [1] = tested on: normal rat kidney (NRK) cells; assay: Uptake of fluorescent probe by NRK cells with or without α2M; type: cell-based
# Text: (C) Fluorescently tagged α2M colocalizes strongly with HB-230.
# FIG. 15. Uptake of HB-2121.
# Puncta of two distinct sizes were observed.
# To verify that HB230 internalization was dependent on TG2 activity, HB258 was designed and synthesized as a control probe. This dihydro-analog is otherwise identical to HB230 but lacks its electrophilic warhead and is therefore unable to irreversibly bond to the active site C277 residue of TG2.
# chymotrypsin = assay: Metabolism by chymotrypsin; type: in vitro ADME; settings: role: substrate
# Text: (§1) FIGS. 14A-14B. Metabolic stability of HB-230 and HB-2121. (A) HB-230 is transformed by chymotrypsin to give the C-terminal carboxylic acid. This metabolite is subsequently cleaved by carboxypeptidase to give the tetrapeptide without the terminal phenylalanine. (B) HB-2121 is stable to both chymotrypsin and carboxypeptidase mediated metabolism.
# (§2) HB-2121 is analogous to the TG2 inhibitor/probe HB-230 but with one modification; the primary amide C-terminus of HB-230 was replaced with a tertiary dimethyl amide. This change greatly enhances the gastrointestinal stability of the probe.
# carboxypeptidase = assay: Metabolism by carboxypeptidase; type: in vitro ADME; settings: role: substrate, subsequent to chymotrypsin
# Text: as §1, §2
# human TG2 = target: T1, human TG2; assay: Steady-state kinetic analysis / TG2 inhibition; type: biochemical; settings: role: inhibitor, substrate PQLPF and inhibitor concentrations varied
# Text: FIG. 1: Kinetic analysis of TG2 inhibition by HB-225. Both substrate (PQLPF) and inhibitor concentrations were varied.
# FIG. 2: Comparison of TG2 inhibition by HB-225 and HB-230. The two compounds have very similar kinetic properties.
# Encouraged by this finding, we went on to design and synthesize our target fluorescent probe, HB230, in which a second unnatural amino acid residue, diaminobutyrate (DAB), was installed in place of Leu (L) in HB225. This residue was also predicted to neither be recognized by TG2 nor HLA-DQ2. Attachment of a Sulfo-Cy5 fluorophore via amide linkage to the DAB residue yielded the desired probe.
# [2] = tested on: clathrin mediated endocytosis; assay: Inhibition of α2M / 33-mer endocytosis by inhibitors of clathrin mediated endocytosis in NRK cells; type: cell-based, rat
# Text: FIG. 7A-7D: (A) Endocytosis of α2M (green) and 33 mer gluten peptide (red) by NRK cells.
# Low density lipoprotein (LDL) receptor-related protein 1 (LRP-1, a.k.a., (α2M receptor or CD91), a member of the LDL receptor family, is responsible for receptor-mediated endocytosis of α2M. Although this receptor is expressed on the surface of a wide range of cell types within the body, α2M endocytosis by LRP-1 is only triggered when this ubiquitous plasma protein undergoes a conformational change upon binding to its protease or non-protease ligands (Bres and Faissner, 2019). We sought to establish whether endocytosis of the ternary α2M-TG2-peptide complex was mediated by LRP-1 using pharmacologic inhibitors of clathrin mediated endocytosis.
# streptavidin = assay: Endocytosis of fluorescent streptavidin by NRK cells; type: cell-based, rat
# Protocol: FIG. 11: (A) Treating NRK cells with increasing concentrations of HB-3-003 in the presence of fluorescently tagged streptavidin leads to increased internalization of streptavidin after a 90 min treatment. (B) Quantification of dose response.
# In order to determine the ability of this pathway to clear specifically targeted proteins from the extracellular environment, we synthesized a pentapeptide harboring the electrophilic warhead and a PEG-4 biotin conjugated to the DAB substituted Y amino acid (HB2110). Streptavidin is expected to bind to the biotin arm of the probe, and thus be endocytosed along with the rest of the complex as previously described. To test this hypothesis NRK cells were treated with 2 μM HB2110 and 1 μM Cy5-conjugated streptavidin.
# We also synthesized the equivalent pentapeptide harbouring a Gln residue in the place of the electrophilic warhead, with biotin conjugated to the DAB substituted Y amino acid through a PEG linker (HB3-3). We then assed the ability of cells to endocytose fluorescent streptavidin in the presence of HB3-3 and α2M.
# cubilin = assay: Depletion of cell surface cubilin on NRK cells; type: cell-based, rat
# Protocol: FIG. 12A-12C: (A) Treating NRK cells with increasing concentrations of HB-3-002 leads to decrease of cell membrane cubilin after a 90 min treatment. (B) Quantification of dose response.
# Cell surface proteins can also be pharmacological targets. Thus we targeted cubilin, the canonical receptor for the intrinsic factor (IF)-vitamin B12 complex. We synthesized a pentapeptide harbouring a Gln residue in the X position, and vitamin B12 conjugated to the DAB substituted Y amino acid through a PEG-5 linker (HB3-2). […] Cubilin is stained using a sheep anti cubilin antibody which recognizes rat cubilin and an ovine Alexa-647 secondary antibody.
# NRK cells [3] = assay: Intracellular payload (Cy5) release in NRK cells with or without cathepsin B inhibitor; type: cell-based, rat
# Protocol: FIG. 13A-13B: (A) HB-2108 is strongly endocytosed and cleaved leading to diffuse staining, (B) Inhibiting Cathepsin B mitigates diffuse pattern.
# We synthesized HB2108, by linking AcPQLPF to Cy5 via a cathepsin-labile valine-citrulline linker. NRK cells were then treated with HB2108 and α2M in the presence and absence of a cathepsin B inhibitor.
# NRK cells [4] = assay: Co-localized endocytosis of Sulfo-Cy5 33-mer gluten peptide and fluorescent α2M in NRK cells; type: cell-based, rat; settings: Sulfo-Cy5-tagged 33 mer; compared with α2M and HB230
# Protocol: FIGS. 6A-6B: Fluorescently tagged 33 mer peptide (A) induces a similar pattern of internalization of α2M as HB-230 (B).
# Thus far, endocytosis of the TG2-α2M complex had exclusively been visualized using peptidic probes that irreversibly label the active site of TG2. To investigate whether transient enzyme-substrate complexes can be efficiently internalized in an α2M-dependent manner, NRK cells were co-incubated with fluorescent α2M and the aforementioned 33-residue gluten peptide (33 mer) tagged with a Sulfo-Cy5 fluorophore.
# α2M = assay: Internalization of fluorescently labeled α2M by NRK cells in the presence of unlabeled TG2 inhibitors; type: cell-based, rat; settings: 100 μM cystamine by itself
# Protocol: FIG. 5A-5C: (A) HB-225 induces a dose dependent uptake of fluorescently tagged α2M.
# To identify the conformational requirements for high-affinity recognition of TG2 by α2M, fluorescently labeled α2M was added to NRK cell cultures in the presence of different (unlabeled) TG2 inhibitors.
# TG2 = settings: role: inhibitor; absence of active site occupancy; Palanski and Khosla, 2018; cited from earlier work
# [5] = high concentrations of both the probe and α2M
molecule,measurement,setting,value
CC(=O)N1CCC[C@H]1C(=O)N[C@@H](CC/C=C/C(=O)N(C)C)C(=O)N[C@@H](CCNC(=O)CCCCC[N+]1=C(/C=C/C=C/C=C2/N(C)c3ccc(S(=O)(=O)O)cc3C2(C)C)C(C)(C)c2cc(S(=O)(=O)[O-])ccc21)C(=O)N1CCC[C@H]1C(=O)N[C@@H](Cc1ccccc1)C(=O)N(C)C [HB-2121],uptake by NRK cells with or without α-2-macroglobulin,"[1]; 2 μM HB-2121, with or without 100 μg/mL α-2-macroglobulin",α2M-enhanced endocytic uptake
same,metabolism by chymotrypsin,chymotrypsin,complete resistance to metabolism
same,metabolism by carboxypeptidase,carboxypeptidase,no subsequent metabolism
CC(=O)N1CCC[C@H]1C(=O)N[C@@H](CC/C=C/C(=O)N(C)C)C(=O)N[C@@H](CC(C)C)C(=O)N1CCC[C@H]1C(=O)N[C@@H](Cc1ccccc1)C(N)=O [HB-225] (HELM PEPTIDE1{[ac].P.[CN(C)C(=O)/C=C/CC[C@H](N[*:1])C(=O)[*:2]].L.P.F.[am]}$$$$V2.0),Ki,human TG2,13 µM
same,kinact,human TG2; read-out: ki (inactivation of TG2) (converted),0.000833 s⁻¹
O=C1N=C(NS(=O)(=O)c2cccc3ccccc23)S/C1=C\c1ccc(Br)cc1 [Pitstop-2],inhibition of α2M and peptide colocalization as large endocytic puncta,[2]; 25 uM Pitstop,strong inhibition
"CC(=O)N1CCC[C@H]1C(=O)N[C@@H](CCC(N)=O)C(=O)N[C@@H](CCC(=O)NCCOCCOCCNC(=O)CCCC[C@@H]1SC[C@@H]2NC(=O)N[C@@H]21)C(=O)N1CCC[C@H]1C(=O)N[C@@H](Cc1ccccc1)C(N)=O [HB-3-003] (HELM PEPTIDE1{[ac].P.Q.E.P.F.[am]}|CHEM1{[O=C(CCCC[C@@H]1SC[C@@H]2NC(=O)N[C@@H]21)NCCOCCOCCN[*:1]]}$PEPTIDE1,CHEM1,4:R3-1:R1$$$V2.0)",endocytosis of fluorescent streptavidin,"streptavidin; presence of α2M, 90 min",endocytosed in an HB3-3 dose dependent manner
vitamin B12 [reference compound],depletion of cubilin by individual components,cubilin; component alone,do not promote the depletion of cubilin
CC(=O)N1CCC[C@H]1C(=O)N[C@@H](CCC(N)=O)C(=O)N[C@@H](CC(C)C)C(=O)N1CCC[C@H]1C(=O)N[C@@H](Cc1ccccc1)C(=O)N[C@H](C(=O)N[C@@H](CCCNC(N)=O)C(=O)NCCCCCCNC(=O)CCCCC[N+]1=C(/C=C/C=C/C=C2/N(C)c3ccccc3C2(C)C)C(C)(C)c2ccccc21)C(C)C [HB-2108] (HELM PEPTIDE1{[ac].P.Q.L.P.F.V.[Cit].[CN1/C(=C/C=C/C=C/C2=[N+](CCCCCC(=O)NCCCCCCN[*:1])c3ccccc3C2(C)C)C(C)(C)c2ccccc21]}$$$$V2.0),Cy5 staining / colocalization with α2M,NRK cells [3]; absence of cathepsin B inhibitor,very diffuse and no longer colocalizes with α2M
same,Cy5 staining / colocalization with α2M,NRK cells [3]; pre-treatment with cathepsin inhibitor,remains strongly colocalized with α2M in the lysosome
"LQLQPFPQPQLPYPQPQLPYPQPQLPYPQPQPF [33 mer, 33-residue gluten peptide tagged with a Sulfo-Cy5 fluorophore]",co-localized endocytosis with fluorescent α2M,NRK cells [4],entirely analogous pattern of co-localized endocytosis
CC(=O)N1CCC[C@H]1C(=O)N[C@@H](CCCCC(=O)N(C)C)C(=O)N[C@@H](CCNC(=O)CCCCC[N+]1=C(/C=C/C=C/C=C2/N(C)c3ccc(S(=O)(=O)O)cc3C2(C)C)C(C)(C)c2cc(S(=O)(=O)[O-])ccc21)C(=O)N1CCC[C@H]1C(=O)N[C@@H](Cc1ccccc1)C(N)=O [HB-258],appearance of intracellular puncta,[1]; [5],only appears as small intracellular puncta
same,uptake by NRK cells (probe without electrophilic warhead),[1]; [5],does not undergo significant uptake by NRK cells
"NCCSSCCN [Cystamine, cystamine]",internalization of fluorescent α2M,α2M,unable to promote rapid internalization of fluorescent α2M by itself
same,inactivation of TG2,TG2,inactivates TG2 by promoting C370-C371 disulfide bond formation
O=C(N/N=C/c1cc(O)c(O)cc1O)c1cc2ccccc2cc1O [Dyno-4a],inhibition of α2M and peptide colocalization as large endocytic puncta,[2]; 20 uM Dyno-4a,strong inhibition
methyl-β-cyclodextrin,inhibition of α2M and peptide colocalization as large endocytic puncta,[2]; 12.5 mM MβCD,strong inhibition
"O=C(O)CCCC[C@@H]1SC[C@@H]2NC(=O)N[C@@H]21 [Biotin, reference compound]",uptake of streptavidin by individual components,"streptavidin; component alone, NRK cells",do not lead to increased uptake of streptavidin
"RAP: inhibitor of LRP-1 (protein, UniProt P30533 35-357, looked up) Alpha-2-macroglobulin …: YSREKNQPKPSPKRESGEEFRMEKLNQLWEKAQRLHLPPVRLAELHADLKIQERDELAWKKLKLDGLDEDGEKEARLIRNLNVILAKYGLDGKKDARQVTSNSLSGTQEDGLDDPRLEKLWHKAKTSGKFSGEELDKLWREFLHHKEKVHEYNVLLETLSRTEEIHENVISPSDLSDIKGSVLHSRHTELKEKLRSINQGLDRLRRVSHQGYSTEAEFEEPRVIDLWDLAQSANLTDKELEAFREELKHFEAKIEKHNHYQKQLEIAHEKLRHAESVGDGERVSRSREKHALLEGRTKELGYTVKKHLQDLSGRISRARHNEL",effect of LRP-1 inhibition on depletion of surface cubilin,"cubilin; LRP-1 inhibited through RAP, HB3-2 with intrinsic factor",mitigates the depletion of surface cubilin
